Values after ≈ are worked out from the molar mass of the structure shown. Active and inactive are the calls of the source. The calls are words filed in the database; no cut-off is given here.
Tests used:
Candida albicans [1] = assay: Antifungal activity against Candida albicans CGMCC 2.2086 assessed as inhibition of fungal growth incubated for 48 hrs; assay type: functional
Candida tropicalis = assay: Antifungal activity against Candida tropicalis CGMCC 2.1975 assessed as inhibition of fungal growth incubated for 48 hrs; assay type: functional
Candida albicans [2] = assay: Antifungal activity against Candida albicans SP3902 assessed as inhibition of fungal growth incubated for 48 hrs; assay type: functional
Candida albicans [3] = assay: Antifungal activity against Candida albicans SP3903 assessed as inhibition of fungal growth incubated for 48 hrs; assay type: functional
Candida albicans [4] = assay: Antifungal activity against Fluconazole-resistant Candida albicans 58288 assessed as inhibition of fungal growth incubated for 48 hrs; assay type: functional
Candida albicans [5] = assay: Antifungal activity against Candida albicans SP3876 assessed as inhibition of fungal growth incubated for 48 hrs; assay type: functional
Candida albicans [6] = assay: Antifungal activity against Candida albicans SP3931 assessed as inhibition of fungal growth incubated for 48 hrs; assay type: functional
Candida albicans [7] = assay: Antifungal activity against Candida albicans 14936 assessed as inhibition of fungal growth incubated for 48 hrs; assay type: functional
Candida albicans [8] = assay: Antifungal activity against Candida albicans 17546 assessed as inhibition of fungal growth incubated for 48 hrs; assay type: functional
Candida albicans [9] = assay: Antifungal activity against Fluconazole-resistant Candida albicans 56214 assessed as inhibition of fungal growth incubated for 48 hrs; assay type: functional
Candida albicans [10] = assay: Antifungal activity against Candida albicans 56452 assessed as inhibition of fungal growth incubated for 48 hrs; assay type: functional
Candida parapsilosis = assay: Antifungal activity against Candida parapsilosis CGMCC 2.3989 assessed as inhibition of fungal growth incubated for 48 hrs; assay type: functional; settings: Lodderomyces parapsilosis
[11] = Hemolytic activity in human red blood cells assessed as hemolysis incubated for 1 hr; assay type: toxicity, cell-based, Erythrocyte
[12] = Hemolytic activity in human red blood cells assessed as hemolysis rate at 512 uM incubated for 1 hr relative to control; assay type: toxicity, cell-based, Erythrocyte; settings: read-out: Activity
[13] = Cytotoxicity against porcine IPEC-J2 cells assessed as reduction in cell viability at 128 uM incubated for 4 hrs by MTT assay; assay type: toxicity, cell-based, Sus scrofa; settings: pig, ipec-j2, 4 h
HEK293 = assay: Cytotoxicity against HEK293 cells assessed as reduction in cell viability at 128 uM incubated for 4 hrs by MTT assay; assay type: toxicity, cell-based; settings: human, hek293, 4 h
Candida albicans [14] = assay: Antifungal activity against Candida albicans CGMCC 2.2086 assessed as inhibition of fungal growth incubated for 48 hrs in presence of NaCl; assay type: functional
Candida albicans [15] = assay: Antifungal activity against Candida albicans CGMCC 2.2086 assessed as inhibition of fungal growth incubated for 48 hrs in presence of KCl; assay type: functional
Candida albicans [16] = assay: Antifungal activity against Candida albicans CGMCC 2.2086 assessed as inhibition of fungal growth incubated for 48 hrs in presence of NH4Cl; assay type: functional
Candida albicans [17] = assay: Antifungal activity against Candida albicans CGMCC 2.2086 assessed as inhibition of fungal growth incubated for 48 hrs in presence of MgCl2; assay type: functional
Candida albicans [18] = assay: Antifungal activity against Candida albicans CGMCC 2.2086 assessed as inhibition of fungal growth incubated for 48 hrs in presence of ZnCl2; assay type: functional
Candida albicans [19] = assay: Antifungal activity against Candida albicans CGMCC 2.2086 assessed as inhibition of fungal growth incubated for 48 hrs in presence of FeCl3; assay type: functional
Candida albicans [20] = assay: Antifungal activity against Candida albicans CGMCC 2.2086 assessed as inhibition of fungal growth incubated for 48 hrs in presence of CaCl2; assay type: functional
[21] = Stability of the compound in NaCl assessed as change in secondary structure by CD spectra analysis; assay type: physicochemical
[22] = Stability of the compound in KCl assessed as change in secondary structure by CD spectra analysis; assay type: physicochemical
[23] = Stability of the compound in NH4Cl assessed as change in secondary structure by CD spectra analysis; assay type: physicochemical
[24] = Stability of the compound in MgCl2 assessed as change in secondary structure by CD spectra analysis; assay type: physicochemical
[25] = Stability of the compound in ZnCl2 assessed as change in secondary structure by CD spectra analysis; assay type: physicochemical
[26] = Stability of the compound in FeCl3 assessed as change in secondary structure by CD spectra analysis; assay type: physicochemical
[27] = Stability of the compound in CaCl2 assessed as change in secondary structure by CD spectra analysis; assay type: physicochemical
Candida albicans [28] = assay: Antifungal activity against Candida albicans CGMCC 2.2086 infected in C57BL/6 mouse keratitis model assessed as reduction in clinical scores at 1 mg/ml administered as 10 uL eye drop every 5 mins for first 1 hr and every 30 mins for next 7 hrs; assay type: functional, organism-based; settings: route ou, time 8.0 hrs
Candida albicans [29] = assay: Antifungal activity against Candida albicans CGMCC 2.2086 infected in C57BL/6 mouse keratitis model assessed as reduction in fungal cell count at 1 mg/ml administered as 10 uL eye drop every 5 mins for first 1 hr and every 30 mins for next 7 hrs; assay type: functional, organism-based; settings: route ou, time 8.0 hrs
Candida albicans [30] = assay: Antifungal activity against Candida albicans CGMCC 2.2086 infected in C57BL/6 mouse keratitis model assessed as reduction in mycelia in the eyes at 1 mg/ml administered as 10 uL eye drop every 5 mins for first 1 hr and every 30 mins for next 7 hrs by Schiff staining based assay; assay type: functional, organism-based; settings: route ou, time 8.0 hrs

Structure (SMILES) | MIC95 (Candida albicans [1]) | MIC95 (Candida tropicalis) | MIC95 (Candida albicans [2]) | MIC95 (Candida albicans [3]) | MIC95 (Candida albicans [4]) | MIC95 (Candida albicans [5]) | MIC95 (Candida albicans [6]) | MIC95 (Candida albicans [7]) | MIC95 (Candida albicans [8]) | MIC95 (Candida albicans [9]) | MIC95 (Candida albicans [10]) | MIC95 (Candida parapsilosis) | further results
CC(C)[C@H](N)C(=O)N[C@H](C(=O)N[C@H](CCCNC(=N)N)C(=O)N[C@@H](CCCNC(=N)N)C(=O)N[C@@H](Cc1c[nH]cn1)C(=O)N[C@H](C(=O)N[C@H](C(=O)N[C@H](C(=O)N[C@H](C(=O)N[C@H](CCCNC(=N)N)C(=O)N[C@@H](CCCNC(=N)N)C(=O)N[C@@H](Cc1c[nH]cn1)C(=O)N[C@H](C(=O)N[C@H](C(=O)N[C@H](C(=O)N[C@H](C(=O)N[C@H](CCCNC(=N)N)C(=O)N[C@@H](CCCNC(=N)N)C(=O)N[C@@H](Cc1c[nH]cn1)C(=O)N[C@H](C(=O)N[C@H](C(=O)N[C@H](C(=O)N[C@H](C(=O)N[C@H](CCCNC(=N)N)C(=O)N[C@@H](CCCNC(=N)N)C(=O)N[C@@H](Cc1c[nH]cn1)C(=O)N[C@H](C(=O)N[C@H](C(N)=O)C(C)C)C(C)C)C(C)C)C(C)C)C(C)C)C(C)C)C(C)C)C(C)C)C(C)C)C(C)C)C(C)C)C(C)C)C(C)C)C(C)C)C(C)C | 8 µM (≈ 27.2 µg/mL) | 4 µM (≈ 13.6 µg/mL) | 8 µM (≈ 27.2 µg/mL) | 4 µM (≈ 13.6 µg/mL) | 8 µM (≈ 27.2 µg/mL) | 8 µM (≈ 27.2 µg/mL) | 8 µM (≈ 27.2 µg/mL) | 8 µM (≈ 27.2 µg/mL) | 8 µM (≈ 27.2 µg/mL) | 4 µM (≈ 13.6 µg/mL) | 8 µM (≈ 27.2 µg/mL) | 4 µM (≈ 13.6 µg/mL) | HC50 at 1 h [11]: > 512 µM; hemolysis at 1 h, 512 µM [12]: 21.7%; Activity [13]: Toxic; Activity (HEK293): Toxic; MIC95 (Candida albicans [14]): 64 µM; MIC95 (Candida albicans [15]): 16 µM; MIC95 (Candida albicans [16]): 8 µM; MIC95 (Candida albicans [17]): 16 µM; MIC95 (Candida albicans [18]): 32 µM; MIC95 (Candida albicans [19]): 16 µM; MIC95 (Candida albicans [20]): 32 µM; Stability [21]: Unstable; Stability [22]: Stable; Stability [23]: Stable; Stability [24]: Stable; Stability [25]: Stable; Stability [26]: Stable; Stability [27]: Stable
C[C@@H]1[C@H](O)[C@@H](C)/C=C/C=C/C=C/C=C/C=C/C=C/C=C/[C@H](O[C@@H]2O[C@H](C)[C@@H](O)[C@H](N)[C@@H]2O)C[C@@H]2O[C@](O)(C[C@@H](O)C[C@@H](O)[C@H](O)CC[C@@H](O)C[C@@H](O)CC(=O)O[C@H]1C)C[C@H](O)[C@H]2C(=O)O [AMPHOTERICIN B] | 0.25 µM (≈ 0.231 µg/mL) | 0.25 µM (≈ 0.231 µg/mL) | 0.25 µM (≈ 0.231 µg/mL) | 0.25 µM (≈ 0.231 µg/mL) | 0.25 µM (≈ 0.231 µg/mL) | 0.25 µM (≈ 0.231 µg/mL) | 0.25 µM (≈ 0.231 µg/mL) | 0.25 µM (≈ 0.231 µg/mL) | 0.25 µM (≈ 0.231 µg/mL) | 0.25 µM (≈ 0.231 µg/mL) | 0.25 µM (≈ 0.231 µg/mL) | 0.25 µM (≈ 0.231 µg/mL) | Activity (Candida albicans [28]): Active; Activity (Candida albicans [29]): Active; Activity (Candida albicans [30]): Active; Mycelia In The Eyes Was Either Absent Or Minimal

Reference: ChEMBL document CHEMBL6134779, “Design of Proteolytic-Resistant Antifungal Peptides by Utilizing Minimum d-Amino Acid Ratios” (J Med Chem, 2024)
